Source: ChEMBL document CHEMBL1201862, “PubChem BioAssay data set” (2004)
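Exposure lasted 48 hours, with cells grown in 96-well plates and compounds tested at five concentrations. GI50 = concentration required for 50% inhibition of growth.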 Activity calls are given as the source filed them. Cut-off read from the data, not from the text of the source: active = GI50 up to about 1.1 µM and inactive = higher.

Experiments:
Test in all cases: inhibition of tumour cell growth, NCI panel, 48 h
A549 = system: A549
ACHN = system: ACHN
BT-549 = system: BT-549
CCRF-CEM = system: CCRF-CEM
DU-145 = system: DU-145
EKVX = system: EKVX
HOP-62 = system: HOP-62
M14 = system: M14
MDA-MB-435 = system: MDA-MB-435
NCI-H226 = system: NCI-H226
NCI-H23 = system: NCI-H23
NCI-H460 = system: NCI-H460
NCI-H522 = system: NCI-H522
NCI/ADR-RES = system: NCI/ADR-RES
PC-3 = system: PC-3
SK-MEL-2 = system: SK-MEL-2
SK-MEL-5 = system: SK-MEL-5
U-251 = system: U-251
UO-31 = system: UO-31
HCC 2998 = system: HCC 2998

Measured: GI50

O=C(O)c1nnsc1-c1ccc(-c2snnc2C(=O)O)cc1
inactive: A549 > 100 µM | ACHN > 100 µM | BT-549 > 100 µM | CCRF-CEM 2.94 µM | DU-145 > 100 µM | EKVX 91.6 µM | HOP-62 > 100 µM | M14 > 100 µM | MDA-MB-435 48.2 µM | NCI-H226 > 100 µM | NCI-H23 > 100 µM | NCI-H460 32.1 µM | NCI-H522 56.6 µM | NCI/ADR-RES > 100 µM | PC-3 85.9 µM | SK-MEL-2 > 100 µM | SK-MEL-5 > 100 µM | U-251 > 100 µM | UO-31 > 100 µM

C(=N\c1ccc(-c2nc3ccccc3o2)cc1)/c1ccco1
inactive: ACHN 49.7 µM | BT-549 77.4 µM | DU-145 75 µM | EKVX 48.3 µM | M14 79.6 µM | MDA-MB-435 75.9 µM | NCI-H23 78.2 µM | NCI-H522 44.2 µM | NCI/ADR-RES 61.7 µM | PC-3 55.7 µM | SK-MEL-2 87.1 µM | SK-MEL-5 30.8 µM | UO-31 41.4 µM

COc1ccccc1-n1nnc2c(N)nc(N)nc21
inactive: A549 > 100 µM | ACHN > 100 µM | BT-549 > 100 µM | CCRF-CEM > 100 µM | DU-145 > 100 µM | EKVX > 100 µM | HOP-62 > 100 µM | M14 > 100 µM | MDA-MB-435 > 100 µM | NCI-H226 > 100 µM | NCI-H23 > 100 µM | NCI-H460 > 100 µM | NCI-H522 > 100 µM | NCI/ADR-RES > 100 µM | PC-3 > 100 µM | SK-MEL-2 > 100 µM | SK-MEL-5 > 100 µM | U-251 > 100 µM | UO-31 > 100 µM

N#CCCSC(=S)C1CCCC1=N (configuration not stated)
inactive: A549 > 100 µM | ACHN > 100 µM | BT-549 > 100 µM | DU-145 > 100 µM | EKVX > 100 µM | HOP-62 > 100 µM | M14 > 100 µM | MDA-MB-435 > 100 µM | NCI-H226 > 100 µM | NCI-H23 > 100 µM | NCI-H460 > 100 µM | NCI-H522 > 100 µM | NCI/ADR-RES > 100 µM | PC-3 > 100 µM | SK-MEL-2 > 100 µM | SK-MEL-5 > 100 µM | U-251 > 100 µM | UO-31 > 100 µM

S=C(NN=C1NCCCCN1)Nc1ccccc1
inactive: A549 34.8 µM | ACHN 28.9 µM | BT-549 64.9 µM | CCRF-CEM 19.8 µM | DU-145 > 100 µM | EKVX 66.4 µM | HCC 2998 > 100 µM | HOP-62 68.9 µM | M14 31.7 µM | MDA-MB-435 39.7 µM | NCI-H226 > 100 µM | NCI-H23 > 100 µM | NCI-H460 37.2 µM | NCI-H522 21.2 µM | NCI/ADR-RES > 100 µM | PC-3 45.7 µM | SK-MEL-5 48.8 µM | U-251 36.3 µM | UO-31 34 µM

CN(CCCn1ccnc1[N+](=O)[O-])CCCn1ccnc1[N+](=O)[O-]
inactive: A549 > 100 µM | ACHN > 100 µM | BT-549 > 100 µM | CCRF-CEM 8.41 µM | DU-145 > 100 µM | EKVX > 100 µM | HOP-62 > 100 µM | M14 > 100 µM | MDA-MB-435 > 100 µM | NCI-H226 > 100 µM | NCI-H23 > 100 µM | NCI-H460 > 100 µM | NCI-H522 > 100 µM | NCI/ADR-RES > 100 µM | PC-3 > 100 µM | SK-MEL-2 > 100 µM | SK-MEL-5 > 100 µM | U-251 > 100 µM | UO-31 > 100 µM

CCN(CC)c1ccc2nc3ccc(/N=N/c4c(O)ccc5ccccc45)cc3[n+](-c3ccccc3)c2c1
inactive: A549 > 100 µM | ACHN > 100 µM | BT-549 > 100 µM | CCRF-CEM > 100 µM | DU-145 > 100 µM | EKVX > 100 µM | HOP-62 > 100 µM | M14 > 100 µM | MDA-MB-435 > 100 µM | NCI-H226 > 100 µM | NCI-H23 > 100 µM | NCI-H522 > 100 µM | NCI/ADR-RES > 100 µM | PC-3 > 100 µM | SK-MEL-2 > 100 µM | SK-MEL-5 > 100 µM | U-251 > 100 µM | UO-31 > 100 µM

C=C1N(S(=O)(=O)c2ccc(C)cc2)C(=O)OCC12CCCC2
inactive: A549 > 100 µM | ACHN > 100 µM | BT-549 > 100 µM | CCRF-CEM 65.5 µM | DU-145 > 100 µM | EKVX 55 µM | HCC 2998 > 100 µM | M14 > 100 µM | MDA-MB-435 > 100 µM | NCI-H226 > 100 µM | NCI-H23 59.3 µM | NCI-H460 96.4 µM | NCI-H522 > 100 µM | NCI/ADR-RES 81.7 µM | PC-3 34.6 µM | SK-MEL-5 25.4 µM | U-251 76 µM | UO-31 84.3 µM

COc1ccc(-n2c(C)nc3ccc(/N=C/c4ccccc4)cc3c2=O)cc1
inactive: ACHN > 100 µM | BT-549 > 100 µM | DU-145 > 100 µM | EKVX > 100 µM | HCC 2998 > 100 µM | HOP-62 > 100 µM | MDA-MB-435 > 100 µM | NCI-H226 > 100 µM | NCI-H23 > 100 µM | NCI-H460 > 100 µM | NCI-H522 > 100 µM | NCI/ADR-RES > 100 µM | PC-3 > 100 µM | SK-MEL-5 > 100 µM | U-251 > 100 µM | UO-31 > 100 µM

COc1ccc(NC(=S)Nc2c(C)n(C)n(-c3ccccc3)c2=O)cc1
inactive: A549 > 100 µM | ACHN > 100 µM | BT-549 > 100 µM | CCRF-CEM > 100 µM | DU-145 > 100 µM | EKVX > 100 µM | HCC 2998 > 100 µM | HOP-62 > 100 µM | M14 > 100 µM | MDA-MB-435 > 100 µM | NCI-H226 > 100 µM | NCI-H23 > 100 µM | NCI-H460 > 100 µM | NCI-H522 > 100 µM | NCI/ADR-RES > 100 µM | PC-3 > 100 µM | SK-MEL-5 > 100 µM | U-251 > 100 µM | UO-31 > 100 µM

S=c1c2cc(I)ccc2nc(S)n1Cc1ccccc1
inactive: A549 3.68 µM | ACHN 3.06 µM | BT-549 4.42 µM | CCRF-CEM 1.84 µM | DU-145 2.71 µM | EKVX 3.71 µM | HOP-62 2.87 µM | M14 3.9 µM | MDA-MB-435 4.1 µM | NCI-H226 5.46 µM | NCI-H23 2.91 µM | NCI-H460 3.28 µM | NCI-H522 4.38 µM | NCI/ADR-RES 3.37 µM | PC-3 3.32 µM | SK-MEL-2 3.14 µM | SK-MEL-5 3.17 µM | U-251 3.46 µM | UO-31 3.37 µM
